COC(=O)c1nc[nH]n1
Conditions | solubility (mole fraction)
in 2-pentanone, 278.15 K | 0.000862
in 2-pentanone, 283.35 K | 0.000994
in 2-pentanone, 288.05 K | 0.0012
in 2-pentanone, 292.55 K | 0.00136
in 2-pentanone, 297.95 K | 0.00165
in 2-pentanone, 302.65 K | 0.00192
in 2-pentanone, 307.35 K | 0.00222
in 2-pentanone, 313.05 K | 0.00253
in 2-pentanone, 317.35 K | 0.00285
in 3-pentanone, 278.25 K | 0.000784
in 3-pentanone, 283.35 K | 0.000902
in 3-pentanone, 288.05 K | 0.00107
in 3-pentanone, 292.55 K | 0.00127
in 3-pentanone, 298.35 K | 0.00143
in 3-pentanone, 303.05 K | 0.00172
in 3-pentanone, 307.35 K | 0.00191
in 3-pentanone, 312.85 K | 0.00224
in 3-pentanone, 317.15 K | 0.00243
in MIBK, 278.25 K | 0.000526
in MIBK, 283.35 K | 0.000657
in MIBK, 288.05 K | 0.000734
in MIBK, 292.55 K | 0.000852
in MIBK, 298.35 K | 0.00111
in MIBK, 303.05 K | 0.00127
in MIBK, 307.35 K | 0.00148
in MIBK, 312.55 K | 0.00172
in MIBK, 317.05 K | 0.00197
in THF, 278.15 K | 0.00105
in THF, 283.05 K | 0.00137
in THF, 289.05 K | 0.00196
in THF, 293.25 K | 0.00244
in THF, 298.35 K | 0.00323
in THF, 303.05 K | 0.00419
in THF, 307.35 K | 0.00517
in THF, 313.85 K | 0.00714
in THF, 317.95 K | 0.00875
in acetone, 278.15 K | 0.00153
in acetone, 283.35 K | 0.00181
in acetone, 288.05 K | 0.00203
in acetone, 292.55 K | 0.00232
in acetone, 297.95 K | 0.00286
in acetone, 302.65 K | 0.0033
in acetone, 307.35 K | 0.00382
in acetone, 313.25 K | 0.00458
in acetone, 317.55 K | 0.00508
in acetonitrile, 278.65 K | 0.000843
in acetonitrile, 283.45 K | 0.000993
in acetonitrile, 288.25 K | 0.0012
in acetonitrile, 292.85 K | 0.00142
in acetonitrile, 297.05 K | 0.00168
in acetonitrile, 301.85 K | 0.00206
in acetonitrile, 307.35 K | 0.00245
in acetonitrile, 313.25 K | 0.00305
in acetonitrile, 318.95 K | 0.00384
in cyclohexanone, 278.05 K | 0.00557
in cyclohexanone, 282.95 K | 0.00583
in cyclohexanone, 289.05 K | 0.00622
in cyclohexanone, 293.25 K | 0.00657
in cyclohexanone, 298.35 K | 0.00687
in cyclohexanone, 303.05 K | 0.0075
in cyclohexanone, 307.35 K | 0.00814
in cyclohexanone, 313.75 K | 0.00888
in cyclohexanone, 317.85 K | 0.00962
in cyclopentanone, 277.95 K | 0.00156
in cyclopentanone, 282.85 K | 0.0018
in cyclopentanone, 288.95 K | 0.00219
in cyclopentanone, 293.25 K | 0.00251
in cyclopentanone, 298.25 K | 0.00303
in cyclopentanone, 303.05 K | 0.00356
in cyclopentanone, 307.25 K | 0.00417
in cyclopentanone, 313.65 K | 0.0053
in cyclopentanone, 317.65 K | 0.00632
in ethanol, 278.45 K | 0.00142
in ethanol, 283.15 K | 0.0016
in ethanol, 288.05 K | 0.00204
in ethanol, 292.65 K | 0.00254
in ethanol, 297.25 K | 0.00305
in ethanol, 301.65 K | 0.00378
in ethanol, 306.95 K | 0.00464
in ethanol, 312.65 K | 0.00602
in ethanol, 318.05 K | 0.00759
in isobutanol, 278.65 K | 0.00103
in isobutanol, 283.35 K | 0.00116
in isobutanol, 288.25 K | 0.00141
in isobutanol, 292.85 K | 0.00182
in isobutanol, 297.05 K | 0.00222
in isobutanol, 301.85 K | 0.00273
in isobutanol, 307.15 K | 0.00337
in isobutanol, 313.15 K | 0.00439
in isobutanol, 318.65 K | 0.00581
in isopropanol, 278.55 K | 0.000966
in isopropanol, 283.25 K | 0.00119
in isopropanol, 288.15 K | 0.00146
in isopropanol, 292.75 K | 0.00188
in isopropanol, 297.15 K | 0.00235
in isopropanol, 301.75 K | 0.00297
in isopropanol, 307.05 K | 0.00389
in isopropanol, 312.85 K | 0.00511
in isopropanol, 318.35 K | 0.00693
in methanol, 278.45 K | 0.00294
in methanol, 283.15 K | 0.0033
in methanol, 288.05 K | 0.00385
in methanol, 292.65 K | 0.00467
in methanol, 297.25 K | 0.00537
in methanol, 301.65 K | 0.00645
in methanol, 306.95 K | 0.00768
in methanol, 312.55 K | 0.00952
in methanol, 317.85 K | 0.0115
in n-butanol, 278.55 K | 0.00199
in n-butanol, 283.35 K | 0.00217
in n-butanol, 288.15 K | 0.00246
in n-butanol, 292.75 K | 0.00279
in n-butanol, 297.15 K | 0.00326
in n-butanol, 301.75 K | 0.00378
in n-butanol, 307.15 K | 0.00476
in n-butanol, 312.95 K | 0.00613
in n-butanol, 318.45 K | 0.00818
in n-propanol, 278.55 K | 0.00137
in n-propanol, 283.25 K | 0.00153
in n-propanol, 288.15 K | 0.00183
in n-propanol, 292.75 K | 0.00227
in n-propanol, 297.15 K | 0.00264
in n-propanol, 301.75 K | 0.00325
in n-propanol, 307.05 K | 0.00398
in n-propanol, 312.75 K | 0.00532
in n-propanol, 318.15 K | 0.0069
